Laboratory results from US20080119515A1, “Heterocyclic Kinase Inhibitors: Methods of Use and Synthesis” (priority 2003, published 2008).

Target: T1, ZAP-70 (Homo sapiens, UniProt P43403)
T1 sequence (P43403 1-619): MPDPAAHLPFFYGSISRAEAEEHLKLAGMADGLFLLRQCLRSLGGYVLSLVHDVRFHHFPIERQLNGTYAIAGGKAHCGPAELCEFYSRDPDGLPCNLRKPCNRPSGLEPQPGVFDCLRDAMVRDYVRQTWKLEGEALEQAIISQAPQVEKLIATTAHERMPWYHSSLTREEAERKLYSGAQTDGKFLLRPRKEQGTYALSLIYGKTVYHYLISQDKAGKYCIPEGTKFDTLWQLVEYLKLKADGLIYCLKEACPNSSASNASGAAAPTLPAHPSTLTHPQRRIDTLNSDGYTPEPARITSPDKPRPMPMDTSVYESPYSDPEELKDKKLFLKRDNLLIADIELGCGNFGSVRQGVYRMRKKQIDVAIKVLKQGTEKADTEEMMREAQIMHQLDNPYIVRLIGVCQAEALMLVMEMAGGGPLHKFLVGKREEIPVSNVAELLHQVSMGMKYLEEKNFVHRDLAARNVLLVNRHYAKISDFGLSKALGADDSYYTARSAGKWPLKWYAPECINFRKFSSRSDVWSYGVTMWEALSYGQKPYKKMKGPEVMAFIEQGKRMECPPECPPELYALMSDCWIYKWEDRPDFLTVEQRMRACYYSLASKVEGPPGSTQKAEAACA
Assay: DELFIA assay (ZAP-70 kinase, phosphorylation of biotinylated poly(glu,tyr))
Format: biochemical
Conditions: ZAP-70 DELFIA, class symbols; read-out: Activity (IC50 in vitro)
Method in brief: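 3.1 nM ZAP-70 pre-incubated 10 min at room temperature with compound ([…]) and 62.5 nM biotinylated poly(glu,tyr) in 62.5 mM Mops pH 7.0, 12.5 mM MgCl2, 12.5% glycerol, 6.25% DMSO (pre-incubation concentrations); ATP added from 5 mM stock, 30 min reaction, EDTA stop. Phosphorylation read by DELFIA europium anti-phosphotyrosine fluorescence (340/615).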

| Compound | IC50 [nM] |
| --- | --- |
| O=C(c1cc(NCc2ccc(C(F)(F)F)cc2)nc2ccc(C#Cc3ccc(Cl)cc3)cc12)N1CCC[C@H]1CN1CCCC1 [Compound 283] | < 1000 |
| O=C(c1cc(NCc2ccc(C(F)(F)F)cc2)nc2ccc(-c3ccc4c(c3)OCO4)cc12)N1CCC[C@H]1CNC1CCCCC1 [Compound 360] | 1000 to 10000 |
| O=C(c1cc(NCc2ccc(C(F)(F)F)cc2)nc2ccc(-c3csc4ccccc34)cc12)N1CCC[C@H]1CN1CCCC1 [Compound 300] | < 1000 |
| NCc1ccc(CNc2cc(C(=O)N3CCC[C@H]3CN3CCCC3)c3cc(-c4ccc5c(c4)OCO5)ccc3n2)cc1 [Compound 437] | < 1000 |
| O=C(Cc1cc(C(=O)N2CCC[C@H]2CN2CCCC2)c2cc(-c3ccc4c(c3)OCO4)ccc2n1)c1ccc(C(F)(F)F)cc1 [Compound 431] | 1000 to 10000 |
| C[Si](C)(C)C#Cc1cc(C(=O)N2CCC[C@H]2CN2CCCC2)c2cc(-c3ccc4c(c3)OCO4)ccc2n1 [Compound 402] | < 1000 |
| CN(Cc1ccccc1)c1cc(C(=O)N2CCC[C@H]2CN2CCCC2)cc(-c2ccccc2)n1 [Compound 275] | > 10000 |
| N#Cc1ccc(-c2ccc3nc(N4CCCC(c5ccccc5F)C4)cc(C(=O)N4CCC[C@H]4CN4CCCC4)c3c2)cc1 (stereo partly drawn) [Compound 267] | > 10000 |
| N=C(NC1CCCCC1)[C@@H]1CCCN1C(=O)c1cc(NCc2ccc(C(F)(F)F)cc2)nc2ccc(-c3ccc4c(c3)OCO4)cc12 [Compound 380] | > 10000 |
| O=C(c1cc(-c2ccc(F)c(Cl)c2)nc2ccc(-c3ccc(F)c(Cl)c3)cc12)N1CCC[C@H]1CN1CCCC1 [Compound 95] | 1000 to 10000 |
| N#Cc1ccc(-c2ccc3nc(N[C@H]4CCc5ccccc54)cc(C(=O)N4CCC[C@H]4CN4CCCC4)c3c2)cc1 [Compound 183] | > 10000 |
| CN1CCN(c2ccc(Nc3cc(C(=O)N4CCCC4CN4CCCC4)c4cc(-c5ccc6c(c5)OCO6)ccc4n3)cc2)CC1 (stereo not drawn) [Compound 429] | < 1000 |
| COc1ccccc1CCNc1cc(C(=O)N2CCC[C@H]2CN2CCCC2)c2cc(-c3ccc(C#N)cc3)ccc2n1 [Compound 313] | 1000 to 10000 |
| N#Cc1ccc(-c2ccc3nc(N[C@@H]4CCCc5ccccc54)cc(C(=O)N4CCC[C@H]4CN4CCCC4)c3c2)cc1 [Compound 205] | > 10000 |
| N#Cc1ccc(-c2ccc3nc(N4CCOC(c5ccccc5)C4)cc(C(=O)N4CCC[C@H]4CN4CCCC4)c3c2)cc1 (stereo partly drawn) [Compound 255] | > 10000 |
| O=C(c1cc(NC2CCCCC2)nc2ccc(-c3ccc4c(c3)OCO4)cc12)N1CCC[C@H]1CN1CCCC1 [Compound 24] | < 1000 |
| Cn1cncc1-c1ccc2nc(NCc3ccc(C(F)(F)F)cc3)cc(C(=O)N3CCC[C@H]3CN3CCCC3)c2c1 [Compound 342] | > 10000 |
| O=C(c1cc(Nc2ccc(F)cc2)nc2ccc(-c3ccc4c(c3)OCO4)cc12)N1CCC[C@H]1CN1CCCC1 [Compound 16] | < 1000 |
| O=C(c1cc(NCc2ccc(C(F)(F)F)cc2)nc2ccc(-c3ccc(F)c(Cl)c3)cc12)N1CCC[C@H]1CN1CCCC1 [Compound 303] | < 1000 |

| Compound | IC50 [nM] |
| --- | --- |
| O=C(c1cc(NCc2ccc(C(F)(F)F)cc2)nc2ccc(-c3cccc(Cl)c3)cc12)N1CCC[C@H]1CN1CCCC1 [Compound 306] | < 1000 |
| N#Cc1ccc(-c2ccc3nc(N4CCC(c5ccccc5F)C4)cc(C(=O)N4CCC[C@H]4CN4CCCC4)c3c2)cc1 (stereo partly drawn) [Compound 262] | > 10000 |
| O=C(c1cc(NCc2ccccc2)nc2ccc(-c3ccc4c(c3)OCO4)cc12)N1CCC[C@H]1CNCc1ccccc1 [Compound 21] | > 10000 |
| O=C(c1cc(OCc2ccc(C(F)(F)F)cc2)nc2ccc(-c3ccc4c(c3)OCO4)cc12)N1CCC[C@H]1CN1CCCC1 [Compound 98] | < 1000 |
| O=C(c1cc(NCc2ccc(C(F)(F)F)cc2)nc2ccc(-c3nc4ccccc4[nH]3)cc12)N1CCC[C@H]1CN1CCCC1 [Compound 354] | > 10000 |
| COc1cccc([C@@H](C)Nc2cc(C(=O)N3CCC[C@H]3CN3CCCC3)c3cc(-c4ccc(C#N)cc4)ccc3n2)c1 [Compound 203] | > 10000 |
| O=C(c1cc(NCc2ccc(C(F)(F)F)cc2)nc2ccc(-c3cccc(OC(F)(F)F)c3)cc12)N1CCC[C@H]1CN1CCCC1 [Compound 310] | < 1000 |
| O=C(c1cc(NCc2ccc(C(F)(F)F)cc2)nc2ccc(C#Cc3cccc(C(F)(F)F)c3)cc12)N1CCC[C@H]1CN1CCCC1 [Compound 284] | < 1000 |
| O=C(c1cc(NCc2ccc(C(F)(F)F)cc2)nc2ccc(-c3cc(Cl)cc(Cl)c3)cc12)N1CCC[C@H]1CN1CCCC1 [Compound 292] | < 1000 |
| O=C(c1cc(Nc2ccc(Oc3ccccc3)cc2)nc2ccc(-c3ccc4c(c3)OCO4)cc12)N1CCC[C@H]1CN1CCCC1 [Compound 51] | < 1000 |
| N#Cc1ccc(-c2ccc3nc(NCc4ccc(OC(F)F)cc4)cc(C(=O)N4CCC[C@H]4CN4CCCC4)c3c2)cc1 [Compound 233] | > 10000 |
| O=C(c1cc(CCCc2ccc(Cl)cc2)nc2ccc(-c3ccc4c(c3)OCO4)cc12)N1CCC[C@H]1CN1CCCC1 [Compound 406] | < 1000 |
| N#Cc1cccc(-c2ccc3nc(-c4cccc(C#N)c4)cc(C(=O)N4CCC[C@H]4CN4CCCC4)c3c2)c1 [Compound 96] | 1000 to 10000 |
| N#Cc1ccc(-c2ccc3nc(NCc4ccc5c(c4)CCO5)cc(C(=O)N4CCC[C@H]4CN4CCCC4)c3c2)cc1 [Compound 318] | 1000 to 10000 |
| O=C(c1cc(Nc2ccc3cn[nH]c3c2)nc2ccc(-c3ccc4c(c3)OCO4)cc12)N1CCC[C@H]1CN1CCCC1 [Compound 57] | < 1000 |
| N#Cc1ccc(-c2ccc3nc(NCc4ccc(-c5cccs5)cc4)cc(C(=O)N4CCC[C@H]4CN4CCCC4)c3c2)cc1 [Compound 234] | > 10000 |
| O=C(c1cc(Oc2ccccc2)nc2ccc(-c3ccc4c(c3)OCO4)cc12)N1CCC[C@H]1CN1CCCC1 [Compound 22] | < 1000 |
| O=C(c1cc(OCc2ccc(Cl)cc2)nc2ccc(-c3ccc4c(c3)OCO4)cc12)N1CCC[C@H]1CN1CCCC1 [Compound 99] | < 1000 |
| O=C(c1cc(Cc2ccccc2)nc2ccc(-c3ccc4c(c3)OCO4)cc12)N1CCC[C@H]1CN1CCCC1 [Compound 25] | < 1000 |

| Compound | IC50 [nM] |
| --- | --- |
| CN(CCC#N)c1cc(C(=O)N2CCC[C@H]2CN2CCCC2)c2cc(-c3ccc4c(c3)OCO4)ccc2n1 [Compound 66] | 1000 to 10000 |
| CN(Cc1ccccc1)c1cc(C(=O)N2CCC[C@H]2CN2CCCC2)cc(/C=C/c2ccc(C(F)(F)F)cc2)n1 [Compound 278] | > 10000 |
| C[C@@H](CNc1cc(C(=O)N2CCC[C@H]2CN2CCCC2)c2cc(-c3ccc(C#N)cc3)ccc2n1)c1ccccc1 [Compound 186] | > 10000 |
| O=C(c1cc(NCc2ccc(C(F)(F)F)cc2)nc2ccc(-c3ccc4c(c3)OCO4)cc12)N1CC[C@H]1CN1CCCC1 [Compound 149] | 1000 to 10000 |
| N#Cc1ccc(-c2ccc3nc(N4CCCC4Cc4ccccc4)cc(C(=O)N4CCC[C@H]4CN4CCCC4)c3c2)cc1 (stereo partly drawn) [Compound 253] | > 10000 |
| N#Cc1ccc(-c2ccc3nc(NCCc4cccc(Cl)c4)cc(C(=O)N4CCC[C@H]4CN4CCCC4)c3c2)cc1 [Compound 196] | > 10000 |
| FC(F)(F)c1ccc(CNc2cc(N3CCC[C@H]3CN3CCCC3)c3cc(-c4ccc5c(c4)OCO5)ccc3n2)cc1 [Compound 103] | 1000 to 10000 |
| O=C(c1cc(NCc2ccc(C(F)(F)F)cc2)nc2cc(-c3ccc4c(c3)OCO4)ccc12)N1CCC[C@H]1CN1CCCC1 [Compound 118] | 1000 to 10000 |
| O=C(c1cc(NCc2ccc(C(F)(F)F)cc2)nc2ccc(-c3nc(Cl)ns3)cc12)N1CCC[C@H]1CN1CCCC1 [Compound 341] | > 10000 |
| O=C(c1cc(NCC2CCCCC2)nc2ccc(-c3ccc4c(c3)OCO4)cc12)N1CCC[C@H]1CN1CCCC1 [Compound 27] | < 1000 |
| O=C(c1cc(NCc2ccc(C(F)(F)F)cc2)nc2ccc(-c3ccc4c(c3)OCO4)cc12)N1CCCC[C@H]1CN1CCCC1 [Compound 375] | 1000 to 10000 |
| Cc1ccc(CNc2cc(C(=O)N3CCC[C@H]3CN3CCCC3)c3cc(-c4ccc(C#N)cc4)ccc3n2)cc1 [Compound 178] | > 10000 |
| O=C(c1cc(NCc2ccc(C(F)(F)F)cc2)nc2ccc(-c3ccc(C(F)(F)F)cc3)cc12)N1CCC[C@H]1CN1CCCC1 [Compound 345] | > 10000 |
| O=C(c1cc(CCc2ccc(F)cc2F)nc2ccc(-c3ccc4c(c3)OCO4)cc12)N1CCC[C@H]1CN1CCCC1 [Compound 397] | < 1000 |
| O=C(c1cc(NCc2ccccc2)nc2ccccc12)N1CCC[C@H]1CN1CCCC1 [Compound 14] | > 10000 |
| O=C(c1cc(NCc2ccc(Cl)cc2)nc2ccc(-c3ccc4c(c3)OCO4)cc12)N1CC[C@H]1CN1CCCC1 [Compound 374] | 1000 to 10000 |
| CC[C@H](Nc1cc(C(=O)N2CCC[C@H]2CN2CCCC2)c2cc(-c3ccc(C#N)cc3)ccc2n1)c1ccccc1 [Compound 171] | > 10000 |
| O=C(c1cc(NCc2ccc(F)c(Cl)c2)nc2ccc(-c3ccc4c(c3)OCO4)cc12)N1CCC[C@H]1CN1CCCC1 [Compound 40] | < 1000 |
| CC(Nc1cc(C(=O)N2CCC[C@H]2CN2CCCC2)c2cc(-c3ccc4c(c3)OCO4)ccc2n1)c1ccc(F)cc1 (stereo partly drawn) [Compound 117] | < 1000 |
